The structures appear in SMILES notation.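 Each compound was tested at five concentrations against cells in 96-well plates for 48 hours. GI50 is the concentration that inhibits growth by half.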 The source made the active and inactive calls. Cut-off read from the data, not from the text of the source: active = GI50 up to about 1.1 µM and inactive = higher.

Some test systems named below: A498; A549; EKVX; IGROV-1; K562; KM12; M14; OVCAR-8; RPMI-8226; SF-295; SF-539; SK-MEL-5; SK-OV-3; SN12C; SNB-19; SNB-75; SW-620; T47D; UACC-62; UO-31.
Assay in all cases: DTP human tumour cell line panel, 48 h

For the compound `O=[N+]([O-])c1c(F)c(F)c2c(c1F)Nc1ccccc1S2`, the GI50 is 16.4 µM (inactive) in the assay with A498; 19.2 µM (inactive) in the assay with A549; 6.44 µM (inactive) with EKVX; 3.08 µM (inactive) with IGROV-1; 2.87 µM (inactive) with K562; 4.49 µM (inactive) in the assay with KM12. Also, the GI50 in the assay on M14 is 3.64 µM (inactive); with OVCAR-8 it was 1.96 µM (inactive); with RPMI-8226 it was 4.7 µM (inactive); in the assay on SF-295 it was 17.3 µM (inactive); in the assay with SF-539, 20.6 µM (inactive); in the assay on SK-MEL-5, 11.6 µM (inactive). In addition, the GI50 with SK-OV-3 was 18.2 µM (inactive); in the assay with SN12C, 3.38 µM (inactive); with SNB-19, 7.23 µM (inactive); with SNB-75, 17.3 µM (inactive); with SW-620 it was 2.77 µM (inactive); in the assay with T47D it was 3.03 µM (inactive). Further, the GI50 is 5.61 µM (inactive) with UACC-62 and 18.2 µM (inactive) with UO-31.
Take `CCCCCCOc1ccc(C(=O)NO)cc1`: the GI50 in the assay with A498 is 13 µM (inactive); in the assay with A549, 14.3 µM (inactive); in the assay with EKVX, 15 µM (inactive); with IGROV-1, 3.61 µM (inactive); in the assay on K562, 5.22 µM (inactive); in the assay with KM12 it was 11.9 µM (inactive). The GI50 with M14 was 11.9 µM (inactive); with OVCAR-8 it was 5.08 µM (inactive); in the assay on RPMI-8226 it was 2.82 µM (inactive); in the assay on SF-295, 8.26 µM (inactive); in the assay on SF-539 it was 11.3 µM (inactive); with SK-MEL-5, 15.7 µM (inactive). For the same compound, the GI50 in the assay on SK-OV-3 was 10.5 µM (inactive); with SN12C, 10.2 µM (inactive); in the assay on SNB-19, 17.8 µM (inactive); in the assay on SNB-75 it was 13.4 µM (inactive); with SW-620, 5.02 µM (inactive); in the assay on T47D it was 5.83 µM (inactive). Further, the GI50 in the assay on UACC-62 is 6.82 µM (inactive); in the assay with UO-31 it was 6.08 µM (inactive).
For the compound `COC(=O)C1=C(C(=O)Nc2cccnc2Cl)N(c2ccc(OC)cc2[N+](=O)[O-])C(c2ccc(C)cc2)=CC1c1ccc(OC)cc1OC` (stereo not given), the GI50 is 16.7 µM (inactive) in the assay with A498; 6.3 µM (inactive) in the assay on A549; 21.9 µM (inactive) in the assay with EKVX; 5.94 µM (inactive) in the assay on IGROV-1; 4.67 µM (inactive) with K562; 2.92 µM (inactive) with KM12. The GI50 with M14 is 13.7 µM (inactive); in the assay with OVCAR-8, 8.79 µM (inactive); in the assay with RPMI-8226, 2.37 µM (inactive); with SF-295, 23.2 µM (inactive); with SF-539, 4.76 µM (inactive); in the assay on SK-MEL-5 it was 10 µM (inactive). The GI50 with SK-OV-3 is 23.7 µM (inactive); in the assay with SN12C, 15.4 µM (inactive); with SNB-19 it was 32.1 µM (inactive); in the assay with SNB-75, 14.2 µM (inactive); with SW-620 it was 4.66 µM (inactive); in the assay on T47D it was 10 µM (inactive). Besides, the GI50 was 24.3 µM (inactive) in the assay with UACC-62 and 12.4 µM (inactive) in the assay on UO-31.
For `CCCCCCCCCCCCCCCCCCNc1ccn(C2OC(COP(=O)(O)OCC3OC(n4cc(F)c(NCCCCCCCCCCCCCCCCCC)nc4=O)CC3O)C(O)C2O)c(=O)n1` (stereo not given), the GI50 was 25.8 µM (inactive) in the assay with A498; 82.8 µM (inactive) in the assay on A549; > 100 µM (inactive) in the assay with EKVX; > 100 µM (inactive) with IGROV-1; > 100 µM (inactive) in the assay with K562; > 100 µM (inactive) with KM12. The GI50 was > 100 µM (inactive) in the assay on M14; 43.6 µM (inactive) in the assay on OVCAR-8; 66.4 µM (inactive) with RPMI-8226; > 100 µM (inactive) in the assay on SF-295; > 100 µM (inactive) in the assay on SF-539; > 100 µM (inactive) in the assay with SK-MEL-5. Also, the GI50 in the assay on SK-OV-3 was > 100 µM (inactive); in the assay on SN12C, > 100 µM (inactive); with SNB-19, 66.8 µM (inactive); with SNB-75 it was > 100 µM (inactive); with SW-620, > 100 µM (inactive); in the assay on T47D, > 100 µM (inactive). For the same compound, the GI50 in the assay on UACC-62 and in the assay with UO-31 was > 100 µM (inactive) in each case.
With `COc1ccc2c(c1)CCN1CCCc3ccc(OC)cc3C21` (stereo not given), the GI50 with A498 was 84.5 µM (inactive); with A549, 75 µM (inactive); in the assay on EKVX it was > 100 µM (inactive); with IGROV-1, 57.4 µM (inactive); in the assay on K562 it was 36 µM (inactive); in the assay with KM12, 60.4 µM (inactive). Besides, the GI50 in the assay with M14 is 24.2 µM (inactive); in the assay with OVCAR-8 it was > 100 µM (inactive); in the assay on RPMI-8226, 31.6 µM (inactive); with SF-295, 24.6 µM (inactive); with SF-539, 50.4 µM (inactive); with SK-MEL-5, 39.6 µM (inactive). Moreover, the GI50 was 77.4 µM (inactive) in the assay on SK-OV-3; 50 µM (inactive) in the assay with SN12C; > 100 µM (inactive) in the assay on SNB-19; 16.4 µM (inactive) in the assay on SNB-75; 76.7 µM (inactive) in the assay with SW-620; 50.6 µM (inactive) in the assay with T47D. Further, the GI50 in the assay with UACC-62 is 57.3 µM (inactive); with UO-31, 22.5 µM (inactive).
Regarding `CC(=O)OC(Cc1cc(C=C(C(F)(F)F)C(F)(F)F)cc(C)n1)(C(F)(F)F)C(F)(F)F`, the GI50 in the assay with A498 is 1.75 µM (inactive); in the assay on A549, 2.88 µM (inactive); with EKVX it was 2.01 µM (inactive); with IGROV-1, 1.1 µM (active); with K562 it was 0.774 µM (active); with KM12, 1.55 µM (inactive). In addition, the GI50 was 1.57 µM (inactive) in the assay with M14; 1.04 µM (active) in the assay with OVCAR-8; 0.656 µM (active) in the assay with RPMI-8226; 2.82 µM (inactive) in the assay with SF-295; 2.06 µM (inactive) in the assay on SF-539; 1.49 µM (inactive) with SK-MEL-5. The GI50 in the assay with SK-OV-3 was 19.5 µM (inactive); in the assay on SN12C it was 1.44 µM (inactive); in the assay with SNB-19, 1.88 µM (inactive); in the assay with SNB-75 it was 2.03 µM (inactive); in the assay on SW-620 it was 1.28 µM (inactive); in the assay on T47D, 1.9 µM (inactive). Further, the results for the GI50 in the assay on UACC-62 and in the assay on UO-31 were 1.68 µM (inactive) and 1.64 µM (inactive), respectively.
For the compound `C=C(CCC(=O)N(CCc1c[nH]c2ccccc12)C(=O)c1ccccc1CSCC)C(=O)OC`, the GI50 was 49.2 µM (inactive) in the assay with A498; 27.1 µM (inactive) with A549; 48.2 µM (inactive) with EKVX; 60.1 µM (inactive) with IGROV-1; 5.66 µM (inactive) in the assay on K562; 8.2 µM (inactive) in the assay on KM12. Further, the GI50 with M14 is 44.6 µM (inactive); in the assay with OVCAR-8, 48.4 µM (inactive); in the assay on RPMI-8226 it was 7.59 µM (inactive); with SF-295, 24.7 µM (inactive); in the assay on SF-539 it was > 88.5 µM (inactive); in the assay on SK-MEL-5, 23.4 µM (inactive). The GI50 is > 71.3 µM (inactive) with SK-OV-3; 30.3 µM (inactive) with SN12C; 56.5 µM (inactive) in the assay with SNB-19; > 83.8 µM (inactive) in the assay on SNB-75; 49.9 µM (inactive) in the assay with SW-620; 21.9 µM (inactive) in the assay with T47D. Besides, the GI50 in the assay on UACC-62 is 12.4 µM (inactive); in the assay with UO-31 it was 27.7 µM (inactive).
For `O=C(/C(=C\C(=O)c1cccs1)c1ccsc1)c1ccc(Br)cc1`, the GI50 is > 100 µM (inactive) in the assay with A498; > 100 µM (inactive) with A549; 92.5 µM (inactive) with EKVX; > 100 µM (inactive) in the assay on IGROV-1; > 100 µM (inactive) in the assay on K562; > 100 µM (inactive) in the assay on KM12. Besides, the GI50 is > 100 µM (inactive) in the assay on M14; > 100 µM (inactive) in the assay on OVCAR-8; 71.1 µM (inactive) in the assay with RPMI-8226; > 100 µM (inactive) in the assay on SF-295; > 100 µM (inactive) in the assay with SF-539; > 100 µM (inactive) in the assay with SK-MEL-5. The GI50 was > 100 µM (inactive) in the assay with SK-OV-3; > 100 µM (inactive) in the assay on SN12C; > 100 µM (inactive) with SNB-19; > 100 µM (inactive) in the assay on SNB-75; > 100 µM (inactive) with SW-620; 18.6 µM (inactive) with T47D. Besides, the GI50 in the assay on UACC-62 and in the assay with UO-31 was > 100 µM (inactive) throughout.
For `O=C(O)c1ccccc1C1CCCc2c1[nH]c1ccccc21` (stereo not given), the GI50 in the assay with A498 was 30.2 µM (inactive); with A549 it was 79.3 µM (inactive); with EKVX, 20.3 µM (inactive); in the assay with IGROV-1, 31.5 µM (inactive); in the assay on K562, 34.6 µM (inactive); with KM12 it was 36.7 µM (inactive). Besides, the GI50 in the assay on M14 is 53.5 µM (inactive); in the assay on OVCAR-8, 75.7 µM (inactive); in the assay on RPMI-8226, 28.8 µM (inactive); with SF-295, 57 µM (inactive); with SF-539, 88.7 µM (inactive); with SK-MEL-5 it was 36.5 µM (inactive). Further, the GI50 in the assay with SK-OV-3 is > 100 µM (inactive); in the assay with SN12C it was > 100 µM (inactive); in the assay on SNB-19, > 100 µM (inactive); with SNB-75, 12.7 µM (inactive); in the assay on SW-620, 57.1 µM (inactive); in the assay on T47D, 11.4 µM (inactive). The figures for the GI50 with UACC-62 and in the assay on UO-31 were 53.2 µM (inactive) and 58.5 µM (inactive), respectively.
For `CCNC(=O)/C(=C/c1ccc(OC)cc1)c1cc(OC)c(OC)c(OC)c1`, the GI50 with A498 was 14.9 µM (inactive); in the assay on A549 it was 7.62 µM (inactive); in the assay with EKVX, 64.1 µM (inactive); in the assay with IGROV-1 it was 19.7 µM (inactive); in the assay on K562, 3.19 µM (inactive); with KM12, 4.23 µM (inactive). Further, the GI50 is 9.29 µM (inactive) with M14; 21.3 µM (inactive) in the assay on OVCAR-8; 14 µM (inactive) with RPMI-8226; 2.98 µM (inactive) with SF-295; 7.87 µM (inactive) in the assay on SF-539; 3.71 µM (inactive) with SK-MEL-5. Moreover, the GI50 was 6.85 µM (inactive) in the assay with SK-OV-3; 20.7 µM (inactive) with SN12C; 12.5 µM (inactive) with SNB-19; 4.97 µM (inactive) with SNB-75; 4.52 µM (inactive) in the assay on SW-620; > 20.4 µM (inactive) with T47D. Besides, the GI50 in the assay with UACC-62 is 3.8 µM (inactive); in the assay with UO-31, 20.1 µM (inactive).

The values are drawn from ChEMBL document CHEMBL1201862, “PubChem BioAssay data set” (2004).
